Test results published in the supplement of paper PMC5662764.
± gives the standard deviation of the averaged measurements.

Key:
Assay in all cases: normalised growth rate inhibition (GR value) relative to DMSO control (GR (1 = untreated growth, 0 = cytostasis, <0 = cytotoxic)); higher = less growth inhibition
Details in all cases: 72 h
MCF10A = system: MCF10A
Experimental: (§1)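 Breast cancer cell lines (BT-20, Hs 578T, MCF 10A, MCF7, MDA-MB-231, SK-BR-3) were plated in 384-well plates and treated 24 h later with drugs at six concentrations (0.04-10 µM). Viable cells were counted by Hoechst/dead-cell-stain imaging at 0 and 72 h. Counts were normalised to DMSO controls on the same plate to give the relative cell count and the growth-rate inhibition (GR) value; technical plate triplicates were averaged for each biological replicate.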

HS578T = system: HS578T
Experimental: as §1

MDAMB231 = system: MDAMB231
Experimental: as §1

SKBR3 = system: SKBR3
Experimental: as §1

BT20 = system: BT20
Experimental: as §1

MCF7 = system: MCF7
Experimental: as §1

SMILES | normalised growth rate inhibition (MCF10A; 0.04 µM) | normalised growth rate inhibition (MCF10A; 0.12 µM) | normalised growth rate inhibition (MCF10A; 0.37 µM) | normalised growth rate inhibition (MCF10A; 1.11 µM) | normalised growth rate inhibition (MCF10A; 3.33 µM) | normalised growth rate inhibition (MCF10A; 10 µM) | normalised growth rate inhibition (HS578T; 0.04 µM) | normalised growth rate inhibition (HS578T; 0.12 µM) | normalised growth rate inhibition (HS578T; 0.37 µM) | normalised growth rate inhibition (HS578T; 1.11 µM) | normalised growth rate inhibition (HS578T; 3.33 µM) | normalised growth rate inhibition (HS578T; 10 µM) | normalised growth rate inhibition (MDAMB231; 0.04 µM) | normalised growth rate inhibition (MDAMB231; 0.12 µM) | normalised growth rate inhibition (MDAMB231; 0.37 µM) | normalised growth rate inhibition (MDAMB231; 1.11 µM) | normalised growth rate inhibition (MDAMB231; 3.33 µM) | normalised growth rate inhibition (MDAMB231; 10 µM) | normalised growth rate inhibition (SKBR3; 0.04 µM) | normalised growth rate inhibition (SKBR3; 0.12 µM) | normalised growth rate inhibition (SKBR3; 0.37 µM) | normalised growth rate inhibition (SKBR3; 1.11 µM) | normalised growth rate inhibition (SKBR3; 3.33 µM) | normalised growth rate inhibition (SKBR3; 10 µM) | normalised growth rate inhibition (BT20; 0.04 µM) | normalised growth rate inhibition (BT20; 0.12 µM) | normalised growth rate inhibition (BT20; 0.37 µM) | normalised growth rate inhibition (BT20; 1.11 µM) | normalised growth rate inhibition (BT20; 3.33 µM) | normalised growth rate inhibition (BT20; 10 µM) | normalised growth rate inhibition (MCF7; 0.04 µM) | normalised growth rate inhibition (MCF7; 0.12 µM) | normalised growth rate inhibition (MCF7; 0.37 µM) | normalised growth rate inhibition (MCF7; 1.11 µM) | normalised growth rate inhibition (MCF7; 3.33 µM) | normalised growth rate inhibition (MCF7; 10 µM)
Cn1c(=O)n(-c2ccc(C(C)(C)C#N)cc2)c2c3cc(-c4cnc5ccccc5c4)ccc3ncc21 [NVP-BEZ235] | 0.393 ± 0.24 | 0.269 ± 0.12 | 0.171 ± 0.038 | 0.164 ± 0.048 | 0.168 ± 0.052 | 0.202 ± 0.03 | 0.261 ± 0.067 | 0.197 ± 0.078 | 0.109 ± 0.087 | 0.132 ± 0.11 | 0.115 ± 0.052 | 0.128 ± 0.044 | 0.397 ± 0.2 | 0.301 ± 0.19 | 0.196 ± 0.2 | 0.216 ± 0.15 | 0.223 ± 0.11 | 0.266 ± 0.095 | 0.0857 ± 0.065 | 0.0449 ± 0.11 | -0.0406 ± 0.12 | -0.04 ± 0.11 | -0.035 ± 0.12 | 0.0305 ± 0.11 | 0.254 ± 0.1 | 0.13 ± 0.12 | 0.0662 ± 0.092 | 0.061 ± 0.042 | 0.055 ± 0.039 | 0.103 ± 0.053 | 0.166 ± 0.15 | 0.122 ± 0.16 | 0.0651 ± 0.16 | 0.0257 ± 0.12 | 0.034 ± 0.1 | 0.068 ± 0.071
COc1cc(N2CCC(N3CCN(C)CC3)CC2)ccc1Nc1ncc(Cl)c(Nc2ccccc2S(=O)(=O)C(C)C)n1 [NVP-TAE684] | 0.889 ± 0.06 | 0.754 ± 0.19 | 0.647 ± 0.14 | 0.555 ± 0.12 | 0.429 ± 0.14 | 0.123 ± 0.1 | 0.885 ± 0.041 | 0.61 ± 0.098 | 0.609 ± 0.073 | 0.351 ± 0.11 | 0.111 ± 0.042 | -0.201 ± 0.15 | 0.908 ± 0.035 | 0.737 ± 0.11 | 0.694 ± 0.089 | 0.389 ± 0.14 | 0.117 ± 0.14 | -0.228 ± 0.21 | 1.08 ± 0.047 | 0.782 ± 0.2 | 0.928 ± 0.069 | 0.691 ± 0.16 | 0.197 ± 0.2 | -0.232 ± 0.068 | 1.04 ± 0.012 | 0.776 ± 0.2 | 0.972 ± 0.088 | 0.829 ± 0.13 | 0.447 ± 0.3 | 0.133 ± 0.28 | 0.553 ± 0.22 | 0.133 ± 0.13 | -0.0107 ± 0.12 | -0.108 ± 0.053 | -0.129 ± 0.021 | -0.198 ± 0.18
Oc1cccc(-c2nc(N3CCOCC3)c3oc4ncccc4c3n2)c1 [PI-103] | 0.96 ± 0.066 | 0.76 ± 0.22 | 0.427 ± 0.24 | 0.196 ± 0.067 | 0.125 ± 0.032 | 0.0826 ± 0.033 | 0.676 ± 0.047 | 0.397 ± 0.075 | 0.249 ± 0.13 | 0.174 ± 0.16 | 0.148 ± 0.17 | 0.0951 ± 0.13 | 0.772 ± 0.075 | 0.637 ± 0.1 | 0.42 ± 0.25 | 0.371 ± 0.12 | 0.291 ± 0.18 | 0.0948 ± 0.18 | 0.9 ± 0.045 | 0.579 ± 0.1 | 0.221 ± 0.052 | -0.00817 ± 0.15 | -0.0811 ± 0.2 | -0.137 ± 0.17 | 0.949 ± 0.084 | 0.723 ± 0.26 | 0.357 ± 0.32 | 0.0983 ± 0.17 | -0.0552 ± 0.017 | -0.115 ± 0.034 | 0.71 ± 0.14 | 0.379 ± 0.16 | 0.0687 ± 0.081 | -0.0473 ± 0.051 | -0.0779 ± 0.063 | -0.153 ± 0.1
CCCS(=O)(=O)Nc1ccc(F)c(C(=O)c2c[nH]c3ncc(Cl)cc23)c1F [PLX-4720] | 0.998 ± 0.019 | 0.99 ± 0.039 | 0.982 ± 0.054 | 1 ± 0.068 | 1 ± 0.066 | 0.896 ± 0.056 | 1.03 ± 0.033 | 1.09 ± 0.044 | 1.12 ± 0.079 | 1.12 ± 0.11 | 1.04 ± 0.086 | 0.781 ± 0.092 | 0.989 ± 0.06 | 1.01 ± 0.054 | 1 ± 0.032 | 0.929 ± 0.041 | 0.822 ± 0.073 | 0.63 ± 0.21 | 0.994 ± 0.015 | 0.999 ± 0.026 | 1.04 ± 0.15 | 1.06 ± 0.06 | 0.61 ± 0.1 | 0.254 ± 0.26 | 1.01 ± 0.032 | 0.988 ± 0.027 | 0.959 ± 0.051 | 0.882 ± 0.16 | 0.685 ± 0.1 | 0.409 ± 0.05 | 1.04 ± 0.078 | 0.944 ± 0.028 | 1.02 ± 0.049 | 0.991 ± 0.02 | 0.851 ± 0.097 | 0.5 ± 0.16
C=CC(=O)Nc1cc(-n2c(=O)ccc3cnc4ccc(-c5cn[nH]c5)cc4c32)ccc1C [QL-X-138] | 1.01 ± 0.063 | 0.981 ± 0.074 | 0.887 ± 0.15 | 0.791 ± 0.19 | 0.505 ± 0.29 | -0.112 ± 0.031 | 0.841 ± 0.034 | 0.76 ± 0.066 | 0.639 ± 0.024 | 0.501 ± 0.018 | 0.379 ± 0.061 | -0.0527 ± 0.082 | 0.824 ± 0.13 | 0.834 ± 0.062 | 0.768 ± 0.059 | 0.672 ± 0.12 | 0.48 ± 0.13 | -0.135 ± 0.11 | 0.463 ± 0.16 | 0.413 ± 0.11 | 0.233 ± 0.13 | 0.163 ± 0.09 | 0.0588 ± 0.1 | -0.231 ± 0.21 | 0.727 ± 0.052 | 0.726 ± 0.046 | 0.631 ± 0.11 | 0.535 ± 0.17 | 0.381 ± 0.18 | -0.222 ± 0.053 | 0.496 ± 0.22 | 0.41 ± 0.2 | 0.31 ± 0.098 | 0.205 ± 0.094 | 0.145 ± 0.061 | -0.0977 ± 0.021
C=CC(=O)N1CCc2ccc(-n3c(=O)ccc4cnc5ccc(-c6cnn(C)c6)cc5c43)cc21 [QL-XII-47] | 0.969 ± 0.021 | 0.953 ± 0.024 | 0.867 ± 0.11 | 0.683 ± 0.26 | 0.428 ± 0.32 | -0.127 ± 0.14 | 0.895 ± 0.091 | 0.854 ± 0.11 | 0.713 ± 0.15 | 0.438 ± 0.24 | 0.153 ± 0.14 | -0.127 ± 0.12 | 0.659 ± 0.12 | 0.541 ± 0.14 | 0.337 ± 0.15 | 0.109 ± 0.14 | -0.0169 ± 0.082 | -0.128 ± 0.12 | 0.516 ± 0.042 | 0.35 ± 0.12 | 0.0964 ± 0.17 | -0.108 ± 0.14 | -0.26 ± 0.18 | -0.3 ± 0.16 | 0.669 ± 0.29 | 0.618 ± 0.31 | 0.351 ± 0.28 | 0.0671 ± 0.23 | -0.135 ± 0.077 | -0.259 ± 0.091 | 0.57 ± 0.16 | 0.35 ± 0.25 | 0.0387 ± 0.084 | -0.0941 ± 0.045 | -0.109 ± 0.017 | -0.188 ± 0.12
Cc1cc(C(C)Nc2ccccc2)c2nc(N3CCOCC3)cc(=O)n2c1 (stereo not drawn) [TGX-221] | 0.968 ± 0.03 | 0.972 ± 0.039 | 0.971 ± 0.027 | 0.964 ± 0.033 | 0.591 ± 0.38 | 0.957 ± 0.08 | 0.9256 ± 0.0041 | 0.902 ± 0.044 | 0.91 ± 0.02 | 0.891 ± 0.029 | 0.597 ± 0.28 | 0.698 ± 0.093 | 0.779 ± 0.087 | 0.816 ± 0.083 | 0.826 ± 0.086 | 0.868 ± 0.042 | 0.691 ± 0.19 | 0.868 ± 0.03 | 0.681 ± 0.072 | 0.789 ± 0.049 | 0.907 ± 0.034 | 0.963 ± 0.036 | 0.961 ± 0.023 | 0.888 ± 0.03 | 0.914 ± 0.05 | 0.954 ± 0.032 | 1.01 ± 0.021 | 1.02 ± 0.052 | 1.06 ± 0.054 | 1.05 ± 0.026 | 0.82 ± 0.073 | 0.848 ± 0.018 | 0.96 ± 0.013 | 0.98 ± 0.034 | 0.79 ± 0.15 | 0.822 ± 0.076
Nc1cccc(-c2cc3c(Oc4cccc(O)c4)ncnc3[nH]2)c1 [TWS-119] | 1.02 ± 0.013 | 1.01 ± 0.011 | 1.02 ± 0.0082 | 1.02 ± 0.024 | 0.912 ± 0.11 | 0.0326 ± 0.084 | 1.02 ± 0.014 | 0.9855 ± 0.0042 | 0.978 ± 0.011 | 0.8808 ± 0.0081 | 0.707 ± 0.057 | -0.081 ± 0.15 | 0.975 ± 0.056 | 0.961 ± 0.07 | 0.929 ± 0.084 | 0.785 ± 0.056 | 0.619 ± 0.021 | 0.0363 ± 0.044 | 1.09 ± 0.077 | 0.989 ± 0.074 | 1.06 ± 0.044 | 1.02 ± 0.043 | 0.48 ± 0.095 | -0.212 ± 0.26 | 1.02 ± 0.034 | 0.994 ± 0.056 | 0.971 ± 0.055 | 0.885 ± 0.11 | 0.696 ± 0.096 | 0.0129 ± 0.081 | 1.06 ± 0.061 | 0.984 ± 0.053 | 0.991 ± 0.071 | 0.963 ± 0.079 | 0.616 ± 0.079 | -0.165 ± 0.1
